In ChEMBL document CHEMBL3588825, “Identification of Oxaphenalenone Ketals from the Ascomycete Fungus Neonectria sp” (J Nat Prod, 2015):
Activity calls are given as the source filed them.

Columns and labels:
Format in all cases: functional, cell-based
SW480 = assay: Cytotoxicity against human SW480 cells at 50 uM after 90 mins by MTS assay
HeLa = assay: Cytotoxicity against human HeLa cells at 50 uM after 90 mins by MTS assay
HCT-116 = assay: Cytotoxicity against human HCT116 cells at 50 uM after 90 mins by MTS assay
A549 = assay: Cytotoxicity against human A549 cells at 50 uM after 90 mins by MTS assay
T-24 = assay: Cytotoxicity against human T24 cells at 50 uM after 90 mins by MTS assay
MCF7 = assay: Cytotoxicity against human MCF7 cells at 50 uM after 90 mins by MTS assay

Measured: Activity

COc1cc2c3c4c(c(O)cc(C)c14)C(=O)O[C@@H]3[C@@H]1C[C@@H](C)O[C@]1(C[C@H]1CCC(=O)O1)O2
inactive: SW480 | HeLa | HCT-116 | A549 | T-24 | MCF7
